# Assay results: PMC10137817, “Efficient Degradation for Raffinose and Stachyose of a β-D-Fructofuranosidase and Its New Function to Improve Gel Properties of Coagulated Fermented-Soymilk” (Gels, 2023)
# Target: T1, LcFFase1s (β-D-fructofuranosidase) (Leptothrix cholodnii, UniProt B1Y2A2)
# T1 construct: gene Lcho_3297; codon-optimised synthetic gene in pET-28a(+) NdeI/XhoI, E. coli BL21(DE3), Ni-IDA purified (His tag implied, cleavage not mentioned)
# T1 sequence (B1Y2A2 1-480): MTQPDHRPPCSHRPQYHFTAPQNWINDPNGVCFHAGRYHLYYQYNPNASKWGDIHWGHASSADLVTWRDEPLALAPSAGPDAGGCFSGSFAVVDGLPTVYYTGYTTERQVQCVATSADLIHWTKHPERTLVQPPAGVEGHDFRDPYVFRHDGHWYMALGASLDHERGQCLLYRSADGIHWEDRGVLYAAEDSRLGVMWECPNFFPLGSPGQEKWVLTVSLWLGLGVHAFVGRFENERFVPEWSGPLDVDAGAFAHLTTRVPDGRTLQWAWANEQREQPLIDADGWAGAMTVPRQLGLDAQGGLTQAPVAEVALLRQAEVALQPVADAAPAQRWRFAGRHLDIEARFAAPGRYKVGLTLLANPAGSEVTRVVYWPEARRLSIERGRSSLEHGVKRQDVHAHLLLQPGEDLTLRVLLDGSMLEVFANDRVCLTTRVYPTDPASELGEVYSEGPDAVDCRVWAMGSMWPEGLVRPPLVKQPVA
# Assay: TLC of hydrolysis products
# Type: biochemical
# Details: 20 mg/mL substrate, 5 U/mL enzyme, 50 mM sodium hydrogen phosphate-citrate pH 6.5, 40 °C
row,SMILES,TLC of hydrolysis products
1,OC[C@H]1O[C@H](OC[C@H]2O[C@H](OC[C@H]3O[C@H](O[C@]4(CO)O[C@H](CO)[C@@H](O)[C@@H]4O)[C@H](O)[C@@H](O)[C@@H]3O)[C@H](O)[C@@H](O)[C@H]2O)[C@H](O)[C@@H](O)[C@H]1O [stachyose],LcFFase1s entirely hydrolyzed raffinose and stachyose into fructose and melibiose or raffinose
2,OC[C@H]1O[C@H](OC[C@H]2O[C@H](O[C@]3(CO)O[C@H](CO)[C@@H](O)[C@@H]3O)[C@H](O)[C@@H](O)[C@@H]2O)[C@H](O)[C@@H](O)[C@H]1O [raffinose],LcFFase1s entirely hydrolyzed raffinose and stachyose into fructose and melibiose or raffinose
